{
  "source": "paper PMC10238281",
  "about": "(International Journal of Biological Macromolecules, 2023)",
  "key": {"[1]": {"tested_on": "SARS2-S pseudovirus", "test": "microbe, parasite or virus in culture", "assay_type": "cell-based, SARS-CoV-2", "settings": "for activity at 2 µM: A549-ACE2, 72 h, read-out: Luciferase ratio (%), 2 μM"}, "[2]": {"biological_target": "spike RBD protein (Severe acute respiratory syndrome coronavirus 2, UniProt P0DTC2)", "assay_type": "binding, SARS-CoV-2"}, "[3]": {"test": "Tissue distribution / pharmacokinetics in female ICR mice", "assay_type": "in vivo"}},
  "data": [
    {"smiles": "COc1ccc(C(=O)c2c[nH]c3ncc(-c4ccc(N5CCNCC5)nc4)cc23)cc1", "note": "[ASM-4, (4-Methoxyphenyl)(5-(6-(piperazin-1-yl)pyridin-3-yl)-1H-pyrrolo[2,3-b]pyridin-3-yl)methanone]", "values": [
      {"measurement": "activity at 2 µM", "setting": "[1]; Pseudovirus", "value": "< 25", "unit": "%"}
    ]},
    {"smiles": "O=C(CCCCC1SCC2NC(=O)NC21)NCCCCCC(=O)N1CCN(c2ccc(-c3cnc4[nH]c(/C=C/c5ccccc5O)nc4c3)cn2)CC1", "note": "(centres unmarked) [Biotin-G7a, (E)-N-(6-(4-(5-(2-(2-Hydroxystyryl)-3H-imidazo[4,5-b]pyridin-6-yl)pyridin-2-yl)piperazin-1-yl)-6-oxohexyl)-5-(2-oxohexahydro-1H-thieno[3,4-d]imidazol-4-yl)pentanamide]", "values": [
      {"measurement": "Binding / pull-down of spike RBD protein by streptavidin IP", "setting": "[2]", "value": "retained the ability to bind spike RBD protein"}
    ]},
    {"smiles": "O=C(c1cccc(F)c1)c1c[nH]c2ncc(-c3ccc(N4CCNCC4)nc3)cc12", "note": "[ASM-9, (3-Fluorophenyl)(5-(6-(piperazin-1-yl)pyridin-3-yl)-1H-pyrrolo[2,3-b]pyridin-3-yl)methanone]", "values": [
      {"measurement": "activity at 2 µM", "setting": "[1]; Pseudovirus", "value": "< 25", "unit": "%"}
    ]},
    {"smiles": "O=C(c1ccc(F)cc1)c1c[nH]c2ncc(-c3ccc(N4CCNCC4)nc3)cc12", "note": "[ASM-7, (4-Fluorophenyl)(5-(6-(piperazin-1-yl)pyridin-3-yl)-1H-pyrrolo[2,3-b]pyridin-3-yl)methanone]", "values": [
      {"measurement": "Fold advantage of EC50 over G7a", "setting": "[1]", "value": 20, "unit": "fold"},
      {"measurement": "EC50", "setting": "[1]; Pseudovirus, A549-ACE2, read-out: EC50, inhibition of SARS2-S pseudovirus entry", "value": 450, "unit": "nM"},
      {"measurement": "Organ distribution (heart, liver, spleen, lung, kidney, brain)", "setting": "[3]; female ICR mice, 1 h after oral administration (30 mg/kg)", "value": "favorable targetability towards the lung"},
      {"measurement": "Blood versus lung concentration", "setting": "[3]; female ICR mice, intravenous administration, 5 min", "value": "concentration of ASM-7 in the lung was substantially higher"},
      {"measurement": "Detection in the lung after oral administration", "setting": "[3]; female ICR mice, oral, 4 h", "value": "could still be detected in the lung"},
      {"measurement": "concentration at 5 min", "setting": "[3]; female, ICR, mouse, lung, iv, 3 mg/kg", "value": 30000, "unit": "ng/g"}
    ]},
    {"smiles": "O=C(CCCCC1SCC2NC(=O)NC21)NCCCCCC(=O)N1CCN(c2ccc(-c3cnc4[nH]cc(C(=O)c5ccc(F)cc5)c4c3)cn2)CC1", "note": "(centres unmarked) [Biotin-ASM-7, N-(6-(4-(5-(3-(4-Fluorobenzoyl)-1H-pyrrolo[2,3-b]pyridin-5-yl)pyridin-2-yl)piperazin-1-yl)-6-oxohexyl)-5-(2-oxohexahydro-1H-thieno[3,4-d]imidazol-4-yl)pentanamide]", "values": [
      {"measurement": "Binding / pull-down of spike RBD protein by streptavidin IP", "setting": "[2]", "value": "could pull down the spike RBD protein"}
    ]},
    {"smiles": "CN1CCN(c2ccc(-c3cnc4[nH]cc(C(=O)c5ccc(F)cc5)c4c3)cc2)CC1", "note": "[ASM-2, (4-Fluorophenyl)(5-(4-(4-methylpiperazin-1-yl)phenyl)-1H-pyrrolo[2,3-b]pyridin-3-yl)methanone]", "values": [
      {"measurement": "activity at 2 µM", "setting": "[1]; Pseudovirus", "value": "< 25", "unit": "%"}
    ]}
  ]
}
